Source: PubChem BioAssay AID1963844 (Molecular Pharmacology Branch, DTP, NCI, 2024)

System: 422866-222-R5-J1-PDC complex spheroid viability
Assay: Anticancer human tumor 422866-222-R5-J1-PDC patient-derived pancreatic adenocarcinoma cell line growth inhibition [POLQ]
Conditions: for IC50: curve of first compound; for viability, T/C: stronger effect = lower value
Method in brief: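 Growth inhibition in 3D: complex spheroids (tumor PDC, HUVEC, MSC) treated with POLQ inhibitor combinations; where Cmax unknown, highest tested concentration 10 microM, except SN-38 at 1 microM.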

[1] = second compound 0.0316 µM, first compound 0.0316 µM
[2] = second compound 0.0316 µM, first compound 0.1 µM
[3] = second compound 0.0316 µM, first compound 0.316 µM
[4] = second compound 0.0316 µM, first compound 1 µM
[5] = second compound 0.0316 µM, first compound 3.16 µM
[6] = second compound 0.0316 µM, first compound 10 µM
[7] = second compound 0.1 µM, first compound 0.0316 µM
[8] = second compound 0.1 µM, first compound 0.1 µM
[9] = second compound 0.1 µM, first compound 0.316 µM
[10] = second compound 0.1 µM, first compound 1 µM
[11] = second compound 0.1 µM, first compound 3.16 µM
[12] = second compound 0.1 µM, first compound 10 µM
[13] = second compound 0.316 µM, first compound 0.0316 µM
[14] = second compound 0.316 µM, first compound 0.1 µM
[15] = second compound 0.316 µM, first compound 0.316 µM
[16] = second compound 0.316 µM, first compound 1 µM
[17] = second compound 0.316 µM, first compound 3.16 µM
[18] = second compound 0.316 µM, first compound 10 µM
[19] = second compound 1 µM, first compound 0.0316 µM
[20] = second compound 1 µM, first compound 0.1 µM
[21] = second compound 1 µM, first compound 0.316 µM
[22] = second compound 1 µM, first compound 1 µM
[23] = second compound 1 µM, first compound 3.16 µM
[24] = second compound 1 µM, first compound 10 µM
[25] = second compound 3.16 µM, first compound 0.0316 µM
[26] = second compound 3.16 µM, first compound 0.1 µM
[27] = second compound 3.16 µM, first compound 0.316 µM
[28] = second compound 3.16 µM, first compound 1 µM
[29] = second compound 3.16 µM, first compound 3.16 µM
[30] = second compound 3.16 µM, first compound 10 µM
[31] = second compound 10 µM, first compound 0.0316 µM
[32] = second compound 10 µM, first compound 0.1 µM
[33] = second compound 10 µM, first compound 0.316 µM
[34] = second compound 10 µM, first compound 1 µM
[35] = second compound 10 µM, first compound 3.16 µM
[36] = second compound 10 µM, first compound 10 µM
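Further: spheroids exposed to compounds for one week before readout.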
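Wherever viability, T/C is given: percent of DMSO vehicle wells luminescence so 100% = untreated viability.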

O=C(c1cc(Cc2n[nH]c(=O)c3ccccc23)ccc1F)N1CCN(C(=O)C2CC2)CC1 + COC1C(OC(N)=O)C(O)C(Oc2ccc3c(O)c(NC(=O)c4ccc(O)c(CC=C(C)C)c4)c(=O)oc3c2C)OC1(C)C
IC50 (second compound 0.0316 µM): < 31.6 nM
IC50 (second compound 0.1 µM): < 31.6 nM
IC50 (second compound 0.316 µM): < 31.6 nM
IC50 (second compound 1 µM): < 31.6 nM
IC50 (second compound 3.16 µM): < 31.6 nM
IC50 (second compound 10 µM): < 31.6 nM
viability, T/C [1]: 40.5%
viability, T/C [2]: 40.1%
viability, T/C [3]: 42.3%
viability, T/C [4]: 38.2%
viability, T/C [5]: 34%
viability, T/C [6]: 27.5%
viability, T/C [7]: 40.1%
viability, T/C [8]: 42.5%
viability, T/C [9]: 41.2%
viability, T/C [10]: 35.4%
viability, T/C [11]: 36.4%
viability, T/C [12]: 26.3%
viability, T/C [13]: 43.5%
viability, T/C [14]: 35.9%
viability, T/C [15]: 35.7%
viability, T/C [16]: 37.9%
viability, T/C [17]: 31%
viability, T/C [18]: 27.5%
viability, T/C [19]: 35.9%
viability, T/C [20]: 32%
viability, T/C [21]: 37.1%
viability, T/C [22]: 37.4%
viability, T/C [23]: 27.4%
viability, T/C [24]: 24.5%
viability, T/C [25]: 39.9%
viability, T/C [26]: 34.6%
viability, T/C [27]: 38.4%
viability, T/C [28]: 36.7%
viability, T/C [29]: 33.7%
viability, T/C [30]: 28.3%
viability, T/C [31]: 38.9%
viability, T/C [32]: 30.9%
viability, T/C [33]: 35.7%
viability, T/C [34]: 32.9%
viability, T/C [35]: 29.3%
viability, T/C [36]: 27.8%

C#Cc1c(F)ccc2cc(O)cc(-c3ncc4c(N5CC6CCC(C5)N6)nc(OCC56CCCN5CC(F)C6)nc4c3F)c12 (stereo unspecified) + Cc1cccc(N(C)C(=O)C2C(O)CCN2c2nc(C)cc(C(F)(F)F)c2C#N)c1
IC50 (second compound 0.0316 µM): 758 nM
IC50 (second compound 0.1 µM): 1090 nM
IC50 (second compound 0.316 µM): 762 nM
IC50 (second compound 1 µM): 712 nM
IC50 (second compound 3.16 µM): 480 nM
IC50 (second compound 10 µM): 465 nM
viability, T/C [1]: 104%
viability, T/C [2]: 79.8%
viability, T/C [3]: 65.2%
viability, T/C [4]: 45.5%
viability, T/C [5]: 33%
viability, T/C [6]: 28.7%
viability, T/C [7]: 92.1%
viability, T/C [8]: 87.2%
viability, T/C [9]: 65.7%
viability, T/C [10]: 54.6%
viability, T/C [11]: 33.3%
viability, T/C [12]: 25.9%
viability, T/C [13]: 102%
viability, T/C [14]: 80%
viability, T/C [15]: 67.6%
viability, T/C [16]: 46%
viability, T/C [17]: 29.3%
viability, T/C [18]: 29.1%
viability, T/C [19]: 95.8%
viability, T/C [20]: 96.9%
viability, T/C [21]: 68.1%
viability, T/C [22]: 43.7%
viability, T/C [23]: 33.5%
viability, T/C [24]: 32%
viability, T/C [25]: 92.8%
viability, T/C [26]: 74.4%
viability, T/C [27]: 57%
viability, T/C [28]: 40.8%
viability, T/C [29]: 30.3%
viability, T/C [30]: 33.9%
viability, T/C [31]: 84.3%
viability, T/C [32]: 69.2%
viability, T/C [33]: 56.1%
viability, T/C [34]: 39.9%
viability, T/C [35]: 32.3%
viability, T/C [36]: 27.6%

CC[C@@]1(O)C(=O)OCc2c1cc1n(c2=O)Cc2cc3c(CN(C)C)c(O)ccc3nc2-1 + COC1C(OC(N)=O)C(O)C(Oc2ccc3c(O)c(NC(=O)c4ccc(O)c(CC=C(C)C)c4)c(=O)oc3c2C)OC1(C)C
IC50 (second compound 0.0316 µM): 22.9 nM
IC50 (second compound 0.1 µM): 21.6 nM
IC50 (second compound 0.316 µM): 23.3 nM
IC50 (second compound 1 µM): 20.7 nM
IC50 (second compound 3.16 µM): 26 nM
IC50 (second compound 10 µM): 22.4 nM
viability, T/C (second compound 0.0316 µM, first compound 0.000316 µM): 105%
viability, T/C (second compound 0.0316 µM, first compound 0.001 µM): 92.5%
viability, T/C (second compound 0.0316 µM, first compound 0.00316 µM): 96.7%
viability, T/C (second compound 0.0316 µM, first compound 0.01 µM): 77%
viability, T/C [1]: 39.2%
viability, T/C [2]: 32.7%
viability, T/C (second compound 0.1 µM, first compound 0.000316 µM): 92.1%
viability, T/C (second compound 0.1 µM, first compound 0.001 µM): 96.3%
viability, T/C (second compound 0.1 µM, first compound 0.00316 µM): 99.4%
viability, T/C (second compound 0.1 µM, first compound 0.01 µM): 77.8%
viability, T/C [7]: 32.3%
viability, T/C [8]: 40.1%
viability, T/C (second compound 0.316 µM, first compound 0.000316 µM): 113%
viability, T/C (second compound 0.316 µM, first compound 0.001 µM): 97.9%
viability, T/C (second compound 0.316 µM, first compound 0.00316 µM): 85.4%
viability, T/C (second compound 0.316 µM, first compound 0.01 µM): 69.1%
viability, T/C [13]: 37.3%
viability, T/C [14]: 39.4%
viability, T/C (second compound 1 µM, first compound 0.000316 µM): 106%
viability, T/C (second compound 1 µM, first compound 0.001 µM): 92.3%
viability, T/C (second compound 1 µM, first compound 0.00316 µM): 92%
viability, T/C (second compound 1 µM, first compound 0.01 µM): 61.8%
viability, T/C [19]: 43.1%
viability, T/C [20]: 35.6%
viability, T/C (second compound 3.16 µM, first compound 0.000316 µM): 96.4%
viability, T/C (second compound 3.16 µM, first compound 0.001 µM): 105%
viability, T/C (second compound 3.16 µM, first compound 0.00316 µM): 90.9%
viability, T/C (second compound 3.16 µM, first compound 0.01 µM): 71.5%
viability, T/C [25]: 45.3%
viability, T/C [26]: 37.8%
viability, T/C (second compound 10 µM, first compound 0.000316 µM): 93.8%
viability, T/C (second compound 10 µM, first compound 0.001 µM): 95.2%
viability, T/C (second compound 10 µM, first compound 0.00316 µM): 83.2%
viability, T/C (second compound 10 µM, first compound 0.01 µM): 71.6%
viability, T/C [31]: 39.8%
viability, T/C [32]: 30.8%
